Measurements published in US20070219214A1, “Dual NK2/NK3-antagonists, pharmaceutical compositions comprising them, and processes for their preparation” (Solvay pharmaceuticals GmbH, priority 2006, published 2007).
Blank lines part the entries; values can stand above or below the compound they belong to.

Columns and labels:
NK3-receptor [1] = target: T1, NK3-receptor (Meriones unguiculatus, UniProt Q2YHR0); assay: NK3-receptor-antagonistic effectiveness in vivo, senktide-induced hypothermia in gerbils; conditions: gerbil; for Inhibition of temperature increase at t = 60 minutes after oral (po) administration: senktide 0.03 mg/kg sc; for Inhibition of temperature increase at a dose of 10 mg/kg after parenteral (ip) administration: 10 mg/kg ip
T1 construct: from tissue; host or cells: whole animal (male gerbils), in vivo
T1 sequence (Q2YHR0 1-454): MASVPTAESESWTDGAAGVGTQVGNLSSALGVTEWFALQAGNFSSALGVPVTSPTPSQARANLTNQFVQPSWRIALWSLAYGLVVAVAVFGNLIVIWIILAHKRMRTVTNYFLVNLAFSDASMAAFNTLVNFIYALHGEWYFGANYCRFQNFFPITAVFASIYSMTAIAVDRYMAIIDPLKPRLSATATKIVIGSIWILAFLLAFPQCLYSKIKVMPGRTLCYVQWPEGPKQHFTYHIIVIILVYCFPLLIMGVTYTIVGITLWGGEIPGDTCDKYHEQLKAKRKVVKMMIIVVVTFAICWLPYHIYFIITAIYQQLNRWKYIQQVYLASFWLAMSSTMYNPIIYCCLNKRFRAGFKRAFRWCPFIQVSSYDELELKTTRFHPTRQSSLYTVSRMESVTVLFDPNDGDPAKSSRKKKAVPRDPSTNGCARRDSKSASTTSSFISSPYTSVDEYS
Experimental: 8. Determination of the NK3-Receptor-Antagonistic Effectiveness of the Test Substances In Vivo (Reduction of Body Temperature in Gerbils with Senktide-Induced Hypothermia)
NK3 agonists reduce the body temperature of gerbils. The senktide-induced hypothermia can be antagonized by administering compounds with NK3-antagonistic properties. Measuring the level of hypothermia is indicative for the degree of activity of the test compounds. The own effect of the tested compound is assessed in the same experiment to exclude an additional hyperthermic effect.
Male gerbils with a body weight between 60 to 90 g are housed in groups under normal day-night rhythm and under constant environmental temperature (room temperature: 21±2° C.) with a constant relative humidity level (50±10%). Water and food are freely available. […] Antagonists: see example compounds in table X.
The animals are weighted and marked 60 minutes prior to the agonist administration. For oral (po) testings, the test compounds are administered at t=−60 minutes. For parenteral or subcutaneous (i por sc, resp.) administration, at t=−30 minutes. […] At t=15 minutes the temperature is measured orally, and registered with a 0.1° C. accuracy after a 10 second reading. This way, animals are measured every 60 sec.

human NK1-receptor = human NK1-receptor (Homo sapiens, UniProt P25103); assay: Functional cellular test, Ca2+ measurements using FLIPR for NK1 activity; type: cell-based; set-up: expressed in transfected cells; host or cells: CHO fibroblast cells; conditions: for pA2 data for NK1: CHO cells, human NK1, FLIPR Ca2+, agonist substance P 10^-8 M
Text: The NK receptor is coupled to Gq.
All steps were done under sterile conditions.

NK2-receptor = target: T2, NK2-receptor (Cavia porcellus, UniProt Q64077); assay: Functional NK2-receptor antagonism in gall bladder preparations isolated from guinea pigs; conditions: neurokinin A-induced contraction
T2 construct: from tissue; host or cells: whole animal (Pirbright-White guinea pigs), in vivo
T2 sequence (Q64077 1-402): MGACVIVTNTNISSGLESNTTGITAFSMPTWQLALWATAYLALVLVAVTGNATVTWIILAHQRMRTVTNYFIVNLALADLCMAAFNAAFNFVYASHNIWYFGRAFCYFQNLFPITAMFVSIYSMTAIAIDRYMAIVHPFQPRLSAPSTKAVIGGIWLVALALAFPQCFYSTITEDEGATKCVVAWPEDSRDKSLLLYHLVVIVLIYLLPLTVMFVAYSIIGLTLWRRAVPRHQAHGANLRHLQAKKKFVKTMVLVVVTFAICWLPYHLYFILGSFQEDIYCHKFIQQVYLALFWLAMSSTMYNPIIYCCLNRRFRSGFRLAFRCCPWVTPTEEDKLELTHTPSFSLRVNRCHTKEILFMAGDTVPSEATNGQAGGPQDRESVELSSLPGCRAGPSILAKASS
Experimental: 6. Determination of Functional NK2-Receptor Antagonism of Test Compounds in Tissue Isolated from Guinea Pigs.
(§1) The NK2 antagonistic action of test compounds was tested in gall bladder preparations isolated from guinea pigs. The preparations were kept in an oxygenated nutrient solution kept at 37° C. For measuring contraction of the gall bladder muscle, the preparations were fixed to a hook and connected to force displacement transducers. Contractions were recorded on a pen recorder.
Before (predrug) and after the administration of the test compound such contractions were measured and quantified in percent of the predrug contraction. 2-3 concentrations of the test compound were applied showing the inhibition of the receptor stimulation concentration dependently. […]

NK3-receptor [2] = target: T3, NK3-receptor (Cavia porcellus, UniProt P30098); assay: Functional NK3-receptor antagonism in ileal preparations isolated from guinea pigs; conditions: guinea pig ileum, [MePhe7]-neurokinin B-induced contraction
T3 construct: from tissue; host or cells: whole animal (Dunkin Hartley guinea pigs), in vivo
T3 sequence (P30098 1-440): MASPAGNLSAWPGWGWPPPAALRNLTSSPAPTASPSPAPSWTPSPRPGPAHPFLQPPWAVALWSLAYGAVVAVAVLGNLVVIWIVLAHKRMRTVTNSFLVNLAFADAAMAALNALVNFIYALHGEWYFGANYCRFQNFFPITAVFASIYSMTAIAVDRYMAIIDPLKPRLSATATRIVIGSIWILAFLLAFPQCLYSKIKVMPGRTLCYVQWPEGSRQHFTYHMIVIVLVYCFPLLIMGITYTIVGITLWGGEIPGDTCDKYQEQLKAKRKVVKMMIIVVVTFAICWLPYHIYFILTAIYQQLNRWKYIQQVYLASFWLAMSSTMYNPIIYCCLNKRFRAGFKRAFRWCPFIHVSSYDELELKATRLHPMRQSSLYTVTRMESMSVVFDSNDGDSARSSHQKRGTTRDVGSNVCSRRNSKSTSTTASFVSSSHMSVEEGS
Experimental: 7. Determination of Functional NK3-Receptor Antagonism of Test Compounds in Tissue Isolated from Guinea Pigs.
as §1, with “NK3-antagonistic” for “NK2 antagonistic”, “ileal” for “gall bladder”, “longitudinal muscle of the ileum,” for “gall bladder muscle,”
The NK3-receptors were stimulated with the NK3-receptor agonist [MePhe^7]-neurokinin B, causing a contraction of the muscle. Before (predrug) and after the administration of the test compound such contractions were measured and quantified in percent of the predrug contraction. 2-3 concentrations of the test compound were applied showing the inhibition of the receptor stimulation concentration dependently. […] The pIC50 value indicates the inhibitory potency of the test compounds to the NK3-receptor.

[3] = t = 30 minutes after administration

Sequence of human NK1-receptor (P25103 whole entry): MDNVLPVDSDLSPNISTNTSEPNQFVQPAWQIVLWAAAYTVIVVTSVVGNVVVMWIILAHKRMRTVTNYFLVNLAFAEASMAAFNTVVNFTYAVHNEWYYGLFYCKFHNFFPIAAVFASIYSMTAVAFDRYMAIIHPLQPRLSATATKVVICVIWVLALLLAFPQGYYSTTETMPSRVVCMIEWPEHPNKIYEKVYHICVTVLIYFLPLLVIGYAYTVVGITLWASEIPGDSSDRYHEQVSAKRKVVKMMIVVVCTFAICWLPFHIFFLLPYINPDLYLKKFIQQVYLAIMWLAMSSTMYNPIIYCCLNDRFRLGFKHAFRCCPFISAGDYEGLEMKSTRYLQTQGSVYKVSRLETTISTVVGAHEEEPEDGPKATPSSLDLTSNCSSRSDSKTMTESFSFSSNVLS

Compound: CN(C)C(=O)C1(N2CCCCC2)CCN(CC[C@H](CN(C)C(=O)c2ccccc2)c2ccc(Cl)c(Cl)c2)CC1 [compound 1]
Inhibition of temperature increase at t = 60 minutes after oral (po) administration (NK3-receptor [1]; Dose: 10 mg/kg po): 37%
Inhibition of temperature increase at t = 60 minutes after oral (po) administration (NK3-receptor [1]; Dose: 30 mg/kg po): 54%
Kb (human NK1-receptor; read-out: pA2 data for NK1 (converted)): 7.94 nM

Compound: CN(C)C(=O)C1(N2CCCCC2)CCN(CC[C@H](CN(C)C(=O)c2ccc(F)cc2)c2ccc(Cl)c(Cl)c2)CC1 [compound 4]
pA2, NK-2-receptor-antagonistic effectiveness on the guinea pig gall bladder in vitro (NK2-receptor): 8.86
pA2, functional NK3-antagonism on isolated guinea pig tissue (NK3-receptor [2]): 8.0
Inhibition of temperature increase at a dose of 10 mg/kg after parenteral (ip) administration (NK3-receptor [1]; t = 15 minutes after administration): 54%
Inhibition of temperature increase at a dose of 10 mg/kg after parenteral (ip) administration (NK3-receptor [1]; [3]): 68%

Compound: CN(C)C(=O)C1(N2CCCCC2)CCN(CC[C@H](CN(C)C(=O)c2cc(C#N)c3ccccc3c2)c2ccc(Cl)c(Cl)c2)CC1 [compound 11]
pA2, NK-2-receptor-antagonistic effectiveness on the guinea pig gall bladder in vitro (NK2-receptor): 8.03
pA2 data for NK1 (human NK1-receptor): 7.9

Compound: CN(C)C(=O)C1(N2CCCCC2)CCN(CC[C@H](CN(C)C(=O)C2CCCCC2)c2ccc(Cl)c(Cl)c2)CC1 [compound 3]
pA2, NK-2-receptor-antagonistic effectiveness on the guinea pig gall bladder in vitro (NK2-receptor): 8.96
pA2, functional NK3-antagonism on isolated guinea pig tissue (NK3-receptor [2]): 8.5

Compound: CN(C)C(=O)C1(N2CCCCC2)CCN(CC[C@H](CN(C)C(=O)c2ccc(O)cc2)c2ccc(Cl)c(Cl)c2)CC1 [compound 6, 1′-{(3S)-3-(3,4-dichlorophenyl)-4-[(4-hydroxybenzoyl)-(methyl)amino]butyl}-N,N-dimethyl-1,4′-bipiperidine-4′-carboxamide]
Inhibition of temperature increase at a dose of 10 mg/kg after parenteral (ip) administration (NK3-receptor [1]; [3]): 75%

The remaining lines, values ahead:

pA2 data for NK1 (human NK1-receptor): 7.2
Compound: CN(C)C(=O)C1(N2CCCCC2)CCN(CC[C@H](CN(C)C(=O)c2cc(F)ccc2F)c2ccc(Cl)c(Cl)c2)CC1 [compound 15]

pA2 data for NK1 (human NK1-receptor): 7.3
Compound: CN(C)C(=O)C1(N2CCCCC2)CCN(CC[C@H](CN(C)C(=O)c2ccc(F)c(F)c2)c2ccc(Cl)c(Cl)c2)CC1 [compound 14]

pA2 data for NK1 (human NK1-receptor): 7.5
Compound: CN(C)C(=O)C1(N2CCCCC2)CCN(CC[C@H](CN(C)C(=O)c2ccc(F)cc2F)c2ccc(Cl)c(Cl)c2)CC1 [compound 13]
